Measurements reported in ChEMBL document CHEMBL5260810, “Inhibition of bromodomain-containing protein 9 for the prevention of epigenetically-defined drug resistance” (Bioorg Med Chem Lett, 2017).

Tests used:
[1] = tested on: NCI-H522; assay: Cytotoxicity against human NCI-H522 cells measured after 8 days; type: functional, cell-based; conditions: NCI-H522, 192 h
[2] = tested on: COLO-800; assay: Cytotoxicity against human COLO-800 cells measured after 8 days; type: functional, cell-based; conditions: COLO-800, 192 h
[3] = Cytotoxicity against human KE-97 cells measured after 8 days; type: functional, cell-based; conditions: KE-97, 192 h
[4] = Cytotoxicity against human HCC1171 cells measured after 8 days; type: functional, cell-based; conditions: HCC1171, 192 h
[5] = Cytotoxicity against human NCI-H2803 cells measured after 8 days; type: functional, cell-based; conditions: NCI-H2803, 192 h
[6] = Cytotoxicity against human SKG-IIIb cells measured after 8 days; type: functional, cell-based; conditions: 192 h
[7] = tested on: HCC38; assay: Cytotoxicity against human HCC38 cells measured after 8 days; type: functional, cell-based; conditions: HCC38, 192 h
[8] = Cytotoxicity against human OCUM-1 cells measured after 8 days; type: functional, cell-based; conditions: OCUM1, 192 h
[9] = Cytotoxicity against human HCC2279 cells measured after 8 days; type: functional, cell-based; conditions: HCC2279, 192 h
[10] = tested on: YAPC; assay: Cytotoxicity against human YAPC cells measured after 8 days; type: functional, cell-based; conditions: 192 h
[11] = Cytotoxicity against human NCE-G 96 cells measured after 8 days; type: functional, cell-based; conditions: NCE-G 96, 192 h
[12] = tested on: Hs 683; assay: Cytotoxicity against human Hs 683 cells measured after 8 days; type: functional, cell-based; conditions: Hs 683, 192 h
[13] = tested on: LNCaP; assay: Cytotoxicity against human LNCaP/Ner cells measured after 8 days; type: functional, cell-based; conditions: 192 h
[14] = tested on: S-117; assay: Cytotoxicity against human S-117 cells measured after 8 days; type: functional, cell-based; conditions: S-117, 192 h
[15] = tested on: NCI-H2347; assay: Cytotoxicity against human NCI-H2347 cells measured after 8 days; type: functional, cell-based; conditions: NCI-H2347, 192 h
[16] = tested on: SNB-19; assay: Cytotoxicity against human SNB-19 cells measured after 8 days; type: functional, cell-based; conditions: SNB-19, 192 h
[17] = tested on: IGR-37 cell line; assay: Cytotoxicity against human IGR-37 cell line measured after 8 days; type: functional, cell-based; conditions: IGR-37, 192 h
[18] = tested on: HOP-62; assay: Cytotoxicity against human HOP-62 cells measured after 8 days; type: functional, cell-based; conditions: HOP-62, 192 h
[19] = tested on: NCI-H28; assay: Cytotoxicity against human NCI-H28 cells measured after 8 days; type: functional, cell-based; conditions: NCI-H28, 192 h
[20] = tested on: NCI-H1838; assay: Cytotoxicity against human NCI-H1838 cells measured after 8 days; type: functional, cell-based; conditions: NCI-H1838, 192 h
[21] = tested on: CAL-120; assay: Cytotoxicity against human CAL-120 cells measured after 8 days; type: functional, cell-based; conditions: CAL-120, 192 h
[22] = tested on: MEL-HO; assay: Cytotoxicity against human MEL-HO cells measured after 8 days; type: functional, cell-based; conditions: 192 h
[23] = tested on: DU-145; assay: Cytotoxicity against human DU-145 cells measured after 8 days; type: functional, cell-based; conditions: DU-145, 192 h
[24] = Cytotoxicity against human SCLC-22H cells measured after 8 days; type: functional, cell-based; conditions: 192 h
[25] = tested on: SW1990; assay: Cytotoxicity against human SW1990 cells measured after 8 days; type: functional, cell-based; conditions: SW1990, 192 h
[26] = biological target: Tyrosine-protein kinase ABL1 (Homo sapiens) (UniProt P00519); assay: Inhibition of Abl (unknown origin) at 1 uM relative to control
[27] = Cytotoxicity against human NCE-G 141 cells measured after 8 days; type: functional, cell-based; conditions: NCE-G 141, 192 h
[28] = tested on: MIA PaCa-2; assay: Cytotoxicity against human MIA Paca-2 cells measured after 8 days; type: functional, cell-based; conditions: MIA PaCa-2, 192 h
[29] = tested on: SW480; assay: Cytotoxicity against human SW480 cells measured after 8 days; type: functional, cell-based; conditions: SW480, 192 h
[30] = biological target: T1, Muscle, skeletal receptor tyrosine-protein kinase (Homo sapiens) (UniProt O15146); assay: Inhibition of MuSK (unknown origin) at 1 uM relative to control
T1 sequence (whole entry): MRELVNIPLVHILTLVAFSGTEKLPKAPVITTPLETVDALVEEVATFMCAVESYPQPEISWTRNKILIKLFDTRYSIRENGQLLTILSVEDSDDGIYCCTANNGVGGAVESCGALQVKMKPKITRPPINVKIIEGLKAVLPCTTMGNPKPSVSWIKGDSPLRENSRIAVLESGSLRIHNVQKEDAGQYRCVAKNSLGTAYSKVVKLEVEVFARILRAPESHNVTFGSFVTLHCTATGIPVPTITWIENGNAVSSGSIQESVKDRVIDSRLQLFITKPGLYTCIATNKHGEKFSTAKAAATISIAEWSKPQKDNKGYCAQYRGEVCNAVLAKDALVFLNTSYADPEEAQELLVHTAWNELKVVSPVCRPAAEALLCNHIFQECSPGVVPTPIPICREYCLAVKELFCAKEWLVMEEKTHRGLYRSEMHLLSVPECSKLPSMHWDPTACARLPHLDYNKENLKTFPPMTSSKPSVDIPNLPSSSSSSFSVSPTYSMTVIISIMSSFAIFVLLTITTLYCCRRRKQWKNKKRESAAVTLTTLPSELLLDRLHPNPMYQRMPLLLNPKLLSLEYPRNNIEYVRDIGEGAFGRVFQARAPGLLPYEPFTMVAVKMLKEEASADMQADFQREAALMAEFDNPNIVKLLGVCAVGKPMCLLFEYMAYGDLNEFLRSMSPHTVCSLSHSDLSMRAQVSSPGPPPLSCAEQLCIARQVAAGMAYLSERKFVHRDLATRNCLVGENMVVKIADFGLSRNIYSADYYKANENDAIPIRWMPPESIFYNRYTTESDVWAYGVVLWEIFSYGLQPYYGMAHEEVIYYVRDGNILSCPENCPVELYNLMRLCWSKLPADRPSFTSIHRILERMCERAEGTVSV

[31] = biological target: Chromatin remodeling regulator CECR2 (Homo sapiens, UniProt Q9BXF3); assay: Binding affinity to human partial length CECR2 (P423 to D543 residues) expressed in bacterial expression system by BROMOscan assay
[32] = tested on: GA-10; assay: Cytotoxicity against human GA-10 cells measured after 8 days; type: functional, cell-based; conditions: GA-10, 192 h
[33] = Cytotoxicity against human COLO-704 cells measured after 8 days; type: functional, cell-based; conditions: COLO 704, 192 h
[34] = tested on: A549; assay: Cytotoxicity against human A549 cells measured after 8 days; type: functional, cell-based; conditions: A549, 192 h
[35] = Cytotoxicity against human SKG-II cells measured after 8 days; type: functional, cell-based; conditions: 192 h
[36] = tested on: Hs 766; assay: Cytotoxicity against human Hs 766 cells measured after 8 days; type: functional, cell-based; conditions: Hs 766, 192 h
[37] = tested on: NCI-H727; assay: Cytotoxicity against human NCI-H727 cells measured after 8 days; type: functional, cell-based; conditions: NCI-H727, 192 h
[38] = Cytotoxicity against human NCE-G 111 cells measured after 8 days; type: functional, cell-based; conditions: NCE-G 111, 192 h
[39] = tested on: NCI-H1703; assay: Cytotoxicity against human NCI-H1703 cells measured after 8 days; type: functional, cell-based; conditions: NCI-H1703, 192 h
[40] = tested on: CGTH-W-1; assay: Cytotoxicity against human CGTH-W-1 cells measured after 8 days; type: functional, cell-based; conditions: CGTH-W-1, 192 h
[41] = Cytotoxicity against human SBC-7 cells measured after 8 days; type: functional, cell-based; conditions: SBC-7, 192 h
[42] = tested on: COLO-679; assay: Cytotoxicity against human COLO-679 cells measured after 8 days; type: functional, cell-based; conditions: COLO-679, 192 h

Chain of Chromatin remodeling regulator CECR2 (Q9BXF3 whole entry, the tested form may be a part): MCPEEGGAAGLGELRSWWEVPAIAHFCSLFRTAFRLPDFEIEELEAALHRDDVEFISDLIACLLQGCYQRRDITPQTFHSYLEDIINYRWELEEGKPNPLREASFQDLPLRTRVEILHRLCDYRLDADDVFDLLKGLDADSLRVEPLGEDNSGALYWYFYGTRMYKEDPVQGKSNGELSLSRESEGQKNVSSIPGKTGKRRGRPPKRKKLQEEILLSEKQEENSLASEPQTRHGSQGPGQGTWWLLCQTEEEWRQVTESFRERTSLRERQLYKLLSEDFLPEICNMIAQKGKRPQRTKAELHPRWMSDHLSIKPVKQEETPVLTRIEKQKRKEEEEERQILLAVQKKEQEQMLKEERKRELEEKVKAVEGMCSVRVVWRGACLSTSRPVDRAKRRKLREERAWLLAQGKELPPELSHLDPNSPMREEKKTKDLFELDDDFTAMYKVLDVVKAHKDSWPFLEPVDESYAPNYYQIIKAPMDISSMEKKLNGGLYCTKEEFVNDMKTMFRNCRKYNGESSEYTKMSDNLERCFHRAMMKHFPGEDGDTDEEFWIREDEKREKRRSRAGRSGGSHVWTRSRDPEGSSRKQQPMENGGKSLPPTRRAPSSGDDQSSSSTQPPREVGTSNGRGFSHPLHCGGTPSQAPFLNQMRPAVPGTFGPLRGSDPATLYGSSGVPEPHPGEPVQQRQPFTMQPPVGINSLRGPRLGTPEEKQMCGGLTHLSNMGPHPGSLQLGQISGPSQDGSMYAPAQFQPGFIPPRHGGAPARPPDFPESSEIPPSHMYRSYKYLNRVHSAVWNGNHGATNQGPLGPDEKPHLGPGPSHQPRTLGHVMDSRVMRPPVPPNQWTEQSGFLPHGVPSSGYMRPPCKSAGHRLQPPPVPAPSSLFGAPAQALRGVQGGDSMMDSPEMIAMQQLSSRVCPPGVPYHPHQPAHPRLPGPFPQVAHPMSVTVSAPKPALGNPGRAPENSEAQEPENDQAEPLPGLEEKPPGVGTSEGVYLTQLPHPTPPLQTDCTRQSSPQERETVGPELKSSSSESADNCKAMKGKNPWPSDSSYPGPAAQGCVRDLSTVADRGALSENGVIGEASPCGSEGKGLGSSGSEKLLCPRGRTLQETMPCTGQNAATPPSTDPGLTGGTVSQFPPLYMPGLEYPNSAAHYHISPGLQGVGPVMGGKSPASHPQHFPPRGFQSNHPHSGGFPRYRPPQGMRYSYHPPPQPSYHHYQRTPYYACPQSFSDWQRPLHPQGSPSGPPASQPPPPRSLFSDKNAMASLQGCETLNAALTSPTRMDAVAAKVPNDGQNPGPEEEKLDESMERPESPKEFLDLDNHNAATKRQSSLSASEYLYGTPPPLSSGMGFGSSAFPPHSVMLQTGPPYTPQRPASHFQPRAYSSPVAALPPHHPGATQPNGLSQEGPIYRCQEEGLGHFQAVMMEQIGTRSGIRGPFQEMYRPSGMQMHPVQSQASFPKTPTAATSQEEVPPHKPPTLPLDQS
Chain of Tyrosine-protein kinase ABL1 (Homo sapiens) (P00519 whole entry): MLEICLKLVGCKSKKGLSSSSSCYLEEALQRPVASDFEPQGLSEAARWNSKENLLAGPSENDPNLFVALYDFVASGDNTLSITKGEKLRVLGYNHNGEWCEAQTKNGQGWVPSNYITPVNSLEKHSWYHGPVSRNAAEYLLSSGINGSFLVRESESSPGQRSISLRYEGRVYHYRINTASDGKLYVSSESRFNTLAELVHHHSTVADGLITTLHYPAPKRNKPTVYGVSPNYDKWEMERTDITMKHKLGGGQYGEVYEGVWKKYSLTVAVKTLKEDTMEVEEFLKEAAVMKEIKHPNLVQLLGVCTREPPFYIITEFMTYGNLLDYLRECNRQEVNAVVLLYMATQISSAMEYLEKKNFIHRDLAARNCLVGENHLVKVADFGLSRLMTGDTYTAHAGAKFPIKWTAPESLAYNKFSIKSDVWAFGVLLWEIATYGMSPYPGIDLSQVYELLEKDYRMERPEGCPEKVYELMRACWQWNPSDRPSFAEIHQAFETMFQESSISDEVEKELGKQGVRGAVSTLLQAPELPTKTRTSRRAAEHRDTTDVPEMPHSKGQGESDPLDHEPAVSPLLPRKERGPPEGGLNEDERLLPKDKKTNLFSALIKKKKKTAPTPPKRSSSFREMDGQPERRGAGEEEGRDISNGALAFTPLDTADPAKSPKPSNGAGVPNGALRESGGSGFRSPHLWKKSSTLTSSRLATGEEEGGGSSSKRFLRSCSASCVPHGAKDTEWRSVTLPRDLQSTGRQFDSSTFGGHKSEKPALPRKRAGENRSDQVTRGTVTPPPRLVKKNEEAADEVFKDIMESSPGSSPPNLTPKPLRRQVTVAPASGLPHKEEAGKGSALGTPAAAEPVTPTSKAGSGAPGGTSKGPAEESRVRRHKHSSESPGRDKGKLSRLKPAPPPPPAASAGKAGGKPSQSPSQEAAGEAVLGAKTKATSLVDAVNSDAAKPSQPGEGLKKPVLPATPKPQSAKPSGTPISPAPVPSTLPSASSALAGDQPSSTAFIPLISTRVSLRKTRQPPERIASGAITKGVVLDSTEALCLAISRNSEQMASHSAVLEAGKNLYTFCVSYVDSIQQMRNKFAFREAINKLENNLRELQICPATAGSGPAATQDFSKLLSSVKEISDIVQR

C/C=C/Cn1cc(-c2ccc(C(=O)N3CCOCC3)cc2)c2cc[nH]c2c1=O
IC50 [1]: 20 µM | IC50 [2]: 20 µM | IC50 [3]: 20 µM | IC50 [4]: 20 µM | IC50 [5]: 20 µM | IC50 [6]: 20 µM | IC50 [7]: 20 µM | IC50 [8]: 20 µM | IC50 [9]: 20 µM | IC50 [10]: 20 µM | IC50 [11]: 20 µM | IC50 [12]: 20 µM | IC50 [13]: 16.7 µM | IC50 [14]: 20 µM | IC50 [15]: 20 µM | IC50 [16]: 20 µM | IC50 [17]: 20 µM | IC50 [18]: 20 µM | IC50 [19]: 20 µM | IC50 [20]: 20 µM | IC50 [21]: 20 µM | IC50 [22]: 20 µM | IC50 [23]: 20 µM | IC50 [24]: 20 µM | IC50 [25]: 20 µM | inhibition [26]: -4.2% | IC50 [27]: 20 µM | IC50 [28]: 20 µM | IC50 [29]: 20 µM | inhibition [30]: -2.4% | Kd [31]: 3.8 µM | IC50 [32]: 10.8 µM | IC50 [33]: 20 µM | IC50 [34]: 20 µM | IC50 [35]: 20 µM | IC50 [36]: 20 µM | IC50 [37]: 20 µM | IC50 [38]: 20 µM | IC50 [39]: 20 µM | IC50 [40]: 20 µM | IC50 [41]: 20 µM | IC50 [42]: 20 µM

C/C=C/Cn1cc(-c2ccc(C(C)(C)O)cc2OC)c2cc[nH]c2c1=O
IC50 [1]: 20 µM | IC50 [2]: 20 µM | IC50 [3]: 20 µM | IC50 [4]: 20 µM | IC50 [5]: 20 µM | IC50 [6]: 20 µM | IC50 [7]: 20 µM | IC50 [8]: 20 µM | IC50 [9]: 20 µM | IC50 [10]: 20 µM | IC50 [11]: 20 µM | IC50 [12]: 20 µM | IC50 [13]: 17.8 µM | IC50 [14]: 20 µM | IC50 [15]: 20 µM | IC50 [16]: 20 µM | IC50 [17]: 20 µM | IC50 [18]: 20 µM | IC50 [19]: 20 µM | IC50 [20]: 20 µM | IC50 [21]: 20 µM | IC50 [22]: 16.5 µM | IC50 [23]: 20 µM | IC50 [24]: 20 µM | IC50 [25]: 20 µM | inhibition [26]: 10% | IC50 [27]: 20 µM | IC50 [28]: 20 µM | IC50 [29]: 20 µM | inhibition [30]: 1.5% | Kd [31]: > 10 µM | IC50 [32]: 20 µM | IC50 [33]: 20 µM | IC50 [34]: 20 µM | IC50 [35]: 20 µM | IC50 [36]: 20 µM | IC50 [37]: 20 µM | IC50 [38]: 20 µM | IC50 [39]: 20 µM | IC50 [40]: 20 µM | IC50 [41]: 20 µM | IC50 [42]: 20 µM

C/C=C/Cn1cc(-c2cc(OC)c(C(=O)N3CCOCC3)cc2OC)c2cc(C)[nH]c2c1=O
IC50 [1]: 2 µM | IC50 [3]: 2 µM | IC50 [4]: 2 µM | IC50 [5]: 2 µM | IC50 [7]: 2 µM | IC50 [8]: 2 µM | IC50 [9]: 2 µM | IC50 [13]: 2 µM | IC50 [15]: 2 µM | IC50 [17]: 2 µM | IC50 [18]: 2 µM | IC50 [19]: 2 µM | IC50 [20]: 2 µM | IC50 [21]: 2 µM | IC50 [22]: 2 µM | IC50 [23]: 2 µM | inhibition [26]: 11% | IC50 [29]: 2 µM | inhibition [30]: 3% | Kd [31]: 3.6 µM | IC50 [32]: 2 µM | IC50 [34]: 2 µM | IC50 [37]: 2 µM | IC50 [38]: 2 µM | IC50 [39]: 2 µM

C/C=C/Cn1cc(-c2cc(OC)c(C(C)(C)O)cc2OC)c2cc(C)[nH]c2c1=O
Kd [31]: > 10 µM
